The numbers were not newly measured in article PMC5742115, “Pharmacophore Modeling and in Silico/in Vitro Screening for Human Cytochrome P450 11B1 and Cytochrome P450 11B2 Inhibitors” (Frontiers in Chemistry, 2017), which cites them from elsewhere.

The test system of data set [1] is CYP11B1. Conditions: reported activity, supplementary Table 1, read-out: CYP11B1 IC50, cited from earlier work.
The subject of data set [2] is CYP11B2. As to conditions: reported activity, supplementary Table 1, read-out: CYP11B2 IC50, cited from earlier work.

Read-outs that look alike come from different tables or passages of the source.

As for `OC1CCc2cc(-c3cccnc3)ccc2C1` (stereo not shown) [CHEMBL461458], the half-inhibitory concentration (IC50) is 4920 nM in data set [1] (ref Lucas et al., 2008b) and 44 nM in data set [2] (ref Lucas et al., 2008b).

With `N#CC1=Cc2ccc(-c3cccnc3)cc2CC1` [CHEMBL461884], the IC50 in data set [1] (ref Lucas et al., 2008b) was 290 nM; in data set [2] (ref Lucas et al., 2008b), 1.6 nM.

As for `O=C1CCc2cc(-c3cccnc3)ccc2C1` [CHEMBL462093], the half-maximal inhibitory concentration (IC50) was 3960 nM in data set [1] (ref Lucas et al., 2008b) and 7.8 nM in data set [2] (ref Lucas et al., 2008b).

As to `c1ccc(Cn2cncc2-c2ccccc2)cc1` [CHEMBL463582], the IC50 in data set [1] (ref Roumen et al., 2010) was 4.8 nM; in data set [2] (ref Roumen et al., 2010) it was 11 nM.

As to `COc1cncc(-c2ccc3c(c2)CCC(=O)C3)c1` [CHEMBL499007], the IC50 in data set [1] (ref Lucas et al., 2008b) was 191 nM; in data set [2] (ref Lucas et al., 2008b), 1.8 nM.

Take `COc1ccc2c(c1)CC(C)C(c1cncc3ccccc13)=C2` (stereo not shown) [CHEMBL499044]: the IC50 in data set [1] (ref Heim et al., 2008) was 64 nM; in data set [2] (ref Heim et al., 2008), 0.5 nM.

`COc1ccc2cc(-c3cccnc3)c(C)cc2c1` [CHEMBL499871]: the IC50 was 1050 nM in data set [1] (ref Heim et al., 2008) and 7 nM in data set [2] (ref Heim et al., 2008).

On to `COc1cncc(C2=Cc3ccc(OC)cc3CC2C)c1` (stereo not shown) [CHEMBL500145], for which the half-inhibitory concentration (IC50) is 100 nM in data set [1] (ref Heim et al., 2008) and 1.2 nM in data set [2] (ref Heim et al., 2008).

As to `COC(=O)c1cncc(-c2ccc3cc(OC)ccc3c2)c1` [CHEMBL500146], the IC50 in data set [1] (ref Heim et al., 2008) was 15 nM; in data set [2] (ref Heim et al., 2008) it was 0.8 nM.

Take `COc1ccc2cc(-c3cncc(C(C)OC)c3)ccc2c1` (stereo not shown) [CHEMBL500392]: the half-maximal inhibitory concentration (IC50) in data set [1] (ref Heim et al., 2008) was 10 nM; in data set [2] (ref Heim et al., 2008), 0.2 nM.

For `COc1ccc2cc(-c3cncc(-c4ccccc4)c3)ccc2c1` [CHEMBL500393], the IC50 in data set [1] (ref Heim et al., 2008) is 151 nM; in data set [2] (ref Heim et al., 2008), 4.8 nM.

With `COc1ccc2cc(-c3cncc4ccccc34)ccc2c1` [CHEMBL500394], the IC50 is 67 nM in data set [1] (ref Heim et al., 2008) and 0.6 nM in data set [2] (ref Heim et al., 2008).

Take `COc1ccc2cc(-c3cncc(C(C)O)c3)ccc2c1` (stereo not shown) [CHEMBL500395]: the IC50 was 99 nM in data set [1] (ref Heim et al., 2008) and 0.5 nM in data set [2] (ref Heim et al., 2008).

Consider `COCc1cncc(-c2ccc3cc(OC)ccc3c2)c1` [CHEMBL500421], for which the IC50 in data set [1] (ref Heim et al., 2008) was 31 nM; in data set [2] (ref Heim et al., 2008) it was 0.2 nM.

Take `COc1ccc2cc(-c3cncc(O)c3)ccc2c1` [CHEMBL500636]: the IC50 in data set [1] (ref Heim et al., 2008) is 8920 nM; in data set [2] (ref Heim et al., 2008), 94 nM.

`N#Cc1ccc2c(c1)CCC(c1cccnc1)=C2` [CHEMBL500663]: the IC50 is 461 nM in data set [1] (ref Heim et al., 2008) and 4.5 nM in data set [2] (ref Heim et al., 2008).

In the case of `COc1ccc2cc(-c3cnccc3C)ccc2c1` [CHEMBL500664], the IC50 was 114 nM in data set [1] (ref Heim et al., 2008) and 0.8 nM in data set [2] (ref Heim et al., 2008).

For the compound `Cc1ccncc1-c1ccc2cc(C#N)ccc2c1` [CHEMBL500665], the half-maximal inhibitory concentration (IC50) in data set [1] (ref Heim et al., 2008) was 52 nM; in data set [2] (ref Heim et al., 2008), 0.6 nM.

Consider `COCc1ccncc1-c1ccc2cc(OC)ccc2c1` [CHEMBL500676], for which the IC50 in data set [1] (ref Heim et al., 2008) was 435 nM; in data set [2] (ref Heim et al., 2008), 2.2 nM.

On to `COc1ccc2c(c1)CC(C)C(c1cccnc1)=C2` (stereo not shown) [CHEMBL502266], for which the IC50 in data set [1] (ref Heim et al., 2008) is 248 nM; in data set [2] (ref Heim et al., 2008) it was 3.3 nM.

For `COc1cncc(-c2cc3ccc(OC)cc3cc2C)c1` [CHEMBL502818], the IC50 in data set [1] (ref Heim et al., 2008) was 875 nM; in data set [2] (ref Heim et al., 2008), 3.8 nM.

As for `COc1ccc2cc(-c3cncc(C(C)=O)c3)ccc2c1` [CHEMBL502824], the 50% inhibitory concentration (IC50) in data set [1] (ref Heim et al., 2008) was 255 nM; in data set [2] (ref Heim et al., 2008) it was 2.1 nM.

Turning to `S=C1CCc2cc(-c3cccnc3)cc(Cl)c2N1` [CHEMBL508155], the IC50 is 769 nM in data set [1] (ref Lucas et al., 2008b) and 4.2 nM in data set [2] (ref Lucas et al., 2008b).

Turning to `O=C1CSc2cc(-c3cccnc3)ccc2N1` [CHEMBL509971], the IC50 was 525 nM in data set [1] (ref Lucas et al., 2008b) and 12 nM in data set [2] (ref Lucas et al., 2008b).

As for `S=C1CCc2cc(-c3cccnc3)ccc2N1` [CHEMBL511329], the 50% inhibitory concentration (IC50) in data set [1] (ref Lucas et al., 2008b) was 580 nM; in data set [2] (ref Lucas et al., 2008b), 3.1 nM.

As to `COc1ccc2cc(-c3cncc4ccccc34)c(C)cc2c1` [CHEMBL525785], the 50% inhibitory concentration (IC50) in data set [1] (ref Heim et al., 2008) is 843 nM; in data set [2] (ref Heim et al., 2008) it was 3.1 nM.

Take `COC(=O)Cc1cncc(-c2ccc3cc(OC)ccc3c2)c1` [CHEMBL526339]: the IC50 was 199 nM in data set [1] (ref Heim et al., 2008) and 6.9 nM in data set [2] (ref Heim et al., 2008).

In the case of `COC(=O)CCc1cncn1Cc1ccc(C#N)cc1` [CHEMBL591229], the IC50 in data set [1] (ref Roumen et al., 2010) is 31 nM; in data set [2] (ref Roumen et al., 2010), 3.5 nM.

Regarding `OCCCc1cncn1Cc1ccc(F)cc1` [CHEMBL591465], the IC50 in data set [1] (ref Roumen et al., 2010) is 116 nM; in data set [2] (ref Roumen et al., 2010), 16 nM.

With `COc1ccc(Cn2cncc2-c2ccccc2)cc1` [CHEMBL591697], the IC50 in data set [1] (ref Roumen et al., 2010) is 11 nM; in data set [2] (ref Roumen et al., 2010), 14 nM.

Regarding `COC(=O)c1cncn1Cc1ccc(C#N)cc1` [CHEMBL591698], the IC50 is 48 nM in data set [1] (ref Roumen et al., 2010) and 7 nM in data set [2] (ref Roumen et al., 2010).

In the case of `COC(=O)CCc1cncn1Cc1ccc(Br)cc1` [CHEMBL592614], the half-inhibitory concentration (IC50) in data set [1] (ref Roumen et al., 2010) is 57 nM; in data set [2] (ref Roumen et al., 2010), 4 nM.
